Tests used:
in vivo [1] = settings: mouse, po, 500 mg/kg
Protocol: 1-deoxy-1-L-theanine-D-fructopyranose was recorded as a theanine glycoside 1, 1-deoxy-1-L-theanine-D-galactopyranose was recorded as a theanine glycoside 2, and 1-deoxy-1-L-theanine-D-ribopyranose was recorded as a theanine glycoside 3. • 1. Experimental animals: Male C57BL/6J mice with the body weight of (20±2) g were used. • 2. Administration and sample collection: The mice were intragastrically administered (n=6), which were randomly divided into two groups, including a theanine group and a theanine glycoside group. The mice were subjected to fasting without limitation of water for 12 h before administration and then allowed to drink water after intragastric administration. The intragastric administration dose was 500 mg/kg. 1 h, 2 h, 4 h, 8 h and 12 h before and after the administration, 6 mice in each group were killed by cervical dislocation and then dissected to obtain brain tissues respectively, and the brain tissues were stored at −80° C. for subsequent detection. • 3. Instrument conditions and determination of brain tissue samples:
(§1) Instrument: SCIEX Triple Quad™ 5500 LC-MS/MS was used.
Drawing of a standard curve: 20 mg of blank brain tissues of the mice were taken, added into 1.5 mL of a 70% methanol aqueous solution and mixed in vortex for 30 s, and a resulting mixture was subjected to ultrasonic treatment in an ice water bath for 10 min, followed by standing at −20° C. for 20 min to precipitate a protein. The protein was centrifuged briefly for 15 s for 2 times, and a supernatant was taken out, dried by a vacuum concentrator at 4° C. and redissolved with 200 μL of methanol. 200 μl of a series of standard solutions of a tested compound and 10 μl of an internal standard (DL-4-chlorophenylmethylamino) were sequentially added to prepare brain tissue samples of the tested compound with a brain tissue concentration of 0.1 μM, 1 μM, 10 μM, 100 μM, 1,000 μM and 10,000 μM respectively, followed by LC-MS/MS analysis. With the concentration of the tested compound (x) as the abscissa and the ratio of peak areas of the tested compound and the internal standard (y) as the ordinate, regression calculation was performed by a weighted least square method to obtain a linear regression equation, namely a standard curve. According to the standard curve, the linear range of the tested compound in the plasma of the mice was 0.1 μM-10,000 μM as determined by an LC/MS/MS method. […]

in vivo [2] = settings: rat, po, 500 mg/kg
Protocol: 1-deoxy-1-L-theanine-D-fructopyranose was recorded as a theanine glycoside 1, 1-deoxy-1-L-theanine-D-galactopyranose was recorded as a theanine glycoside 2, and 1-deoxy-1-L-theanine-D-ribopyranose was recorded as a theanine glycoside 3. • 1. Experimental animals: Male SD rats with the body weight of (180±20) g were used. • 2. Administration and sample collection: The rats were intragastrically administered (n=6), which were randomly divided into two groups, including a theanine group and a theanine glycoside group. The rats were subjected to fasting without limitation of water for 12 h before administration and then allowed to drink water after intragastric administration. The intragastric administration dose was 500 mg/kg. 1 h, 2 h, 4 h, 8 h and 12 h before and after the administration, 0.5 mL of blood was collected from eye sockets of 6 rats in each group, respectively. Blood samples were centrifuged at 3,000 g for 15 min, supernatants were separated to obtain plasma samples, and the plasma samples were stored at −80° C. • 3. Instrument conditions and determination of plasma samples:
as §1
Drawing of a standard curve: 100 μL of blank plasma of the rats was taken, added into 1.5 mL of a 70% methanol aqueous solution and mixed in vortex for 30 s, and a resulting mixture was subjected to ultrasonic treatment in an ice water bath for 10 min, followed by standing at −20° C. for 20 min to precipitate a protein. The protein was centrifuged briefly for 15 s for 2 times, and a supernatant was taken out, dried by a vacuum concentrator at 4° C. and redissolved with 200 μl of methanol. 200 μL of a series of standard solutions of a tested compound and 10 μL of an internal standard (DL-4-chlorophenylmethylamino) were sequentially added to prepare plasma samples of the tested compound with a plasma concentration of 0.1 μM, 1 μM, 10 μM, 100 μM, 1,000 μM and 10,000 μM respectively, followed by LC-MS/MS analysis. With the concentration of the tested compound (x) as the abscissa and the ratio of peak areas of the tested compound and the internal standard (y) as the ordinate, regression calculation was performed by a weighted least square method to obtain a linear regression equation, namely a standard curve. According to the standard curve, the linear range of the tested compound in the plasma of the rats was 0.1 μM-10,000 μM as determined by an LC-MS/MS method. […]
The half-life T1/2 was calculated according to formulas below: […]

T1/2 in the brain (in vivo [1])	T1/2 in the blood (in vivo [2])	half-life (in vivo [1]; male, C57BL/6J)	half-life (in vivo [2]; male, SD)	Structure (SMILES)
10.85 ± 0.54 h	16.80 ± 1.93 h	–	–	CCNC(=O)CC[C@H](NC1OC[C@@H](O)[C@@H](O)[C@H]1O)C(=O)O (stereo partly drawn) [Theanine glycoside 3, 1-deoxy-1-L-theanine-D-ribopyranose]
19.56 ± 1.54 h	25.70 ± 1.31 h	–	–	CCNC(=O)CC[C@H](NCC1(O)OC[C@@H](O)[C@@H](O)[C@@H]1O)C(=O)O (stereo partly drawn) [Theanine glycoside 1, 1-deoxy-1-L-theanine-D-fructopyranose]
–	–	2.07 ± 0.19 h	2.05 ± 0.12 h	CCNC(=O)CC[C@H](N)C(=O)O [Theanine, L-theanine]
13.55 ± 1.55 h	19.94 ± 1.06 h	–	–	CCNC(=O)CC[C@H](NC1O[C@H](CO)[C@H](O)[C@H](O)[C@H]1O)C(=O)O (stereo partly drawn) [Theanine glycoside 2, 1-deoxy-1-L-theanine-D-galactopyranose]
